The text below walks through data of BindingDB's records for PubMed 34154424 (Bayer AG).

SMILES strings stand for the structures.

The target of assay [1] is Mitogen-activated protein kinase kinase kinase 7, TAK1 kinase (Homo sapiens) (UniProt O43318). In words: Inhibition of Tak1 (unknown origin) by competition binding assay.
The target of assay [2] is Tyrosine-protein kinase Fyn (Homo sapiens) (UniProt P06241). In words: Inhibition of T-Fyn (unknown origin) by HTRF assay.
In assay [3] the target is Mitogen-activated protein kinase kinase kinase 7, TAK1 kinase (Homo sapiens) (UniProt O43318). In words: Inhibition of Tak1 (unknown origin) in presence of ATP.

Mitogen-activated protein kinase kinase kinase 7, TAK1 kinase (Homo sapiens), sequence (O43318 whole entry, looked up): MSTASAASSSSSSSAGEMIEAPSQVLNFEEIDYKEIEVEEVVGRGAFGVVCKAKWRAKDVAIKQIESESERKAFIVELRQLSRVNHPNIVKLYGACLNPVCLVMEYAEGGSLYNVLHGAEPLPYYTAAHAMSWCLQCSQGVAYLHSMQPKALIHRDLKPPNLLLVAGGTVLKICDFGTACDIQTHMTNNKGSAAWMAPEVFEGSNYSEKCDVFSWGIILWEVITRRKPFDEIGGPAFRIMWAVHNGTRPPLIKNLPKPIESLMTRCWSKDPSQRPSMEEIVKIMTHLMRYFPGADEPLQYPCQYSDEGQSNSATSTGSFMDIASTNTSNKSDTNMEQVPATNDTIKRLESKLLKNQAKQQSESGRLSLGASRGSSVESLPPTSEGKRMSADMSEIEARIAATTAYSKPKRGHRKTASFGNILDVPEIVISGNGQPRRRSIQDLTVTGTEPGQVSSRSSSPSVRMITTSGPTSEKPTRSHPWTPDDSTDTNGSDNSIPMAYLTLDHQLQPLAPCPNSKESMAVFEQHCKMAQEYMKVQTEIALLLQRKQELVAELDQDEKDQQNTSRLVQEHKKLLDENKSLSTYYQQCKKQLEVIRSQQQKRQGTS
Tyrosine-protein kinase Fyn (Homo sapiens), sequence (P06241 whole entry, looked up): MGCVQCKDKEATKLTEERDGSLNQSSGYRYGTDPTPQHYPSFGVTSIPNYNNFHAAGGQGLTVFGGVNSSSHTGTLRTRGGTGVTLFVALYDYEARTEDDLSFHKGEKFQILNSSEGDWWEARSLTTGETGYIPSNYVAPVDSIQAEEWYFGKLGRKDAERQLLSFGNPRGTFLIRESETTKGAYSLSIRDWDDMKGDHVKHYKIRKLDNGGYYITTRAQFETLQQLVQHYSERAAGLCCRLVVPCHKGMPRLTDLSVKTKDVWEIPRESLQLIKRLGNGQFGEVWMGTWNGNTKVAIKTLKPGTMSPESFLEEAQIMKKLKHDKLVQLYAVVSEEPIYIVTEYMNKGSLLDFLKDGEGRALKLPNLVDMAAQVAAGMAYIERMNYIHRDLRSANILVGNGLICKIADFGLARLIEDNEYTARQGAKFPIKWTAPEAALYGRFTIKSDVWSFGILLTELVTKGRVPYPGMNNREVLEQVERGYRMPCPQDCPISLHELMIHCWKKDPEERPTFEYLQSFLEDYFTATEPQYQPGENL

With `C[C@H]1CC(=O)Nc2cc(C(=O)NCCC3CC3)ccc2N1C(=O)N1CC2CC2C1` (stereo partly drawn), the half-maximal inhibitory concentration (IC50) is > 2 nM in assay [1], > 5.7 nM in assay [2] and > 2 nM in assay [3].
